Laboratory results reported in patent US10105343B2, “Cannabis based compositions and methods of treating hypertension” (KUBBY PATENT AND LICENSES, LIMITED LIABILITY COMPANY, priority 2010, dated 2018).

Test system: hypertension
Assay: Inventor's own case: control of hypertension in adrenal cancer (anecdotal patient report)
Assay type: in vivo, human
Settings: single patient (the inventor)
Description: In 1999, this inventor's doctors told them that after completing extensive medical tests at the University of Southern California's School of Medicine their prognosis was poor. According to Dr. Vincent DeQuattro, a USC professor and world authority on adrenal cancer, their blood contained deadly levels of adrenaline, more than enough to kill anyone else.
Nearly everyone else who has ever had the malignant form of the inventor's disease has died within a few years. The inventor credits their survival, now 35 years since their diagnosis, to medical marijuana, something DeQuattro considered a “medical miracle.” Dr. DeQuattro has written that the inventor could suffer a heart attack or stroke if deprived of marijuana and that no other form of therapy is available.
Despite the seriousness and dramatic dangers of their disease, a person was arrested and jailed for using the only medicine that worked for them. During their first few days of incarceration, they experienced excruciating pain, a vicious high blood-pressure crisis, passed blood in their urine and over a period of 60 days, and lost 33 pounds.
That's when […] started to experiment with lozenges to see if […] could create a natural cannabis based lozenge that would control hypertension, without undesirable side effects.
This led the Inventor to the development that is taught in this invention.

Q: Which results are given for CCCCCc1cc(O)c2c(c1)OC(C)(C)[C@@H]1CCC(C)=C[C@@H]21 [Marinol, tetrahydrocannabinol]?
A: undesirable side effects: constant nausea; controlling hypertension (adrenal cancer with deadly adrenaline levels): extremely effective; substitute for whole cannabis in treating the inventor's otherwise fatal disease (during incarceration): acceptable, if not ideal, substitute
